Four compounds from patent publication US20240366625A1, “COMPOSITIONS CONTAINING AND THERAPIES USING BEMPEDOIC ACID AND TOLVAPTAN” (Esperion Therapeutics, Inc., priority 2021, published 2024) can be followed below.

Assay [1] relates to proximal tubule (PT)-derived Pkd1−/− kidney epithelial cells. Description: Cyst growth of PT-derived Pkd1−/− kidney epithelial cells in 3D cultures (Matrigel). Type of assay: cell-based, mouse. To be noted: 10 μM forskolin+100 μM IBMX, vs vehicle (DMSO). As for the experimental part: The example describes cell growth inhibition studies in 3D cultures of kidney epithelial cells using either of ACLY inhibitors bempedoic acid or SB-204990. […] Cells were grown in Matrigel 12 days and treated with 10 μM forskolin+100 μM IBMX for 11 days, and then treated with either vehicle (DMSO; CON), 500 μM metformin, 100 μM ETC-1002 (bempedoic acid) or 30 μM SB-204990 either alone or in combination as shown for the last 3 days (FIG. 2A). […] Error bars indicate 95% confidence interval (CI) (*P<0.05, **P<0.01, ***P<0.001 for the indicated comparisons by one-way ANOVA and Tukey's multiple comparison test) (FIG. 2B).

Assay [2] relates to inner medullary collecting duct (IMCD)-derived Pkd1−/− kidney epithelial cells. Description: Cyst growth of IMCD-derived Pkd1−/− kidney epithelial cells in 3D cultures (Matrigel). It is filed as cell-based, mouse. As to conditions: 10 μM forskolin+100 μM IBMX. As for the experimental part: ETC-1002 inhibited cyst growth of inner medullary collecting duct (IMCD)-derived Pkd1−/− kidney epithelial cells in 3D cultures. Cells were grown in Matrigel for 6 days and treated with 10 μM forskolin+100 μM IBMX±500 μM metformin and/or 100 μM of ETC-1002 (bempedoic acid) for the last 3 days alone or in combination as shown (FIG. 2C). […] Error bars indicate 95% CI (*P<0.05, **P<0.01, ***P<0.001 for the indicated comparisons by one-way ANOVA and Tukey's multiple comparison test) (FIG. 2D).

Assay [3] deals with early onset, rapidly developing ADPKD mouse model Pkd1fl/fl;Pax8-rtTA;Tet-O-Cre. The assay is described as follows: Early onset, rapidly developing ADPKD mouse model: kidney size, kidney weight to body weight, BUN. It is filed as in vivo. To be noted: for BUN: vehicle 107±14; for kidney size (H&E stains of kidney sections) compared to vehicle control: oral gavage daily P12-P21, P22. As for the experimental part: The example describes characterization of the early onset, rapidly developing ADPKD mouse model Pkd1fl/fl;Pax8-rtTA;Tet-O-Cre homozygous in the C57BL/6 background.
(§1) Doxycycline was administered intraperitoneally (50 mg/kg/day) on postnatal days 10 and 11 (P10 and P11) to induce Pkd1 deletion and rapidly progressive PKD in the Cre+ mice. Mice were treated with the various drugs and combinations or vehicle by oral gavage daily from P12-P21 and were then sacrificed at P22 of age to harvest kidneys for histology, weight measurements and blood urea nitrogen (BUN) measurements. Treatments were vehicle, tolvaptan 30 mg/kg/d, tolvaptan 100 mg/kg/d, bempedoic acid 30 mg/kg/d, tolvaptan 30 mg/kg/d+bempedoic acid 30 mg/kg/d, and tolvaptan 100 mg/kg/d+bempedoic acid 30 mg/kg/d; also included was an uninduced, untreated group without PKD. Each treatment group consisted of 3-6 mice.

For the next assay, the system named is phosphorylated ACLY. Description: Immunoblot of kidney lysates, early onset ADPKD mice: pACLY. Type of assay: in vivo, mouse. To be noted: bempedoic acid 30 mg/kg/d alone or in combination with tolvaptan; P22. As for the experimental part: as §1
(§2) At the end of the study, kidney sample lysates were prepared in buffer and separated using SDS-PAGE. Separated proteins were then electrophoretically transferred to membranes. Nonspecific binding was blocked, and membranes were probed with antibodies against phosphorylated (Thr172)-AMPK, phosphorylated P70S6K, phosphorylated ERK, phosphorylated ACLY, total KIM-1, and total neutrophil gelatinase-associated lipocalin (NGAL). Membranes were incubated with appropriate detection antibodies and relative signal intensity determined. Protein levels were normalized to total protein levels. […] These effects of bempedoic acid occurred both alone and in combination with tolvaptan therapy.
On the technique in general: A western blot detects proteins with antibodies after separation by electrophoresis.

Assay [4] relates to phosphorylated (Thr172)-AMPK. Description: Immunoblot of kidney lysates, early onset ADPKD mice: pAMPK. Type of assay: in vivo, mouse. To be noted: bempedoic acid 30 mg/kg/d alone or in combination with tolvaptan; P22. As for the experimental part: as §1, §2
In a further assay the test system is phosphorylated P70S6K. The assay is described as follows: Immunoblot of kidney lysates, early onset ADPKD mice: pP70S6K (mTOR pathway). Type of assay: in vivo, mouse. As to conditions: bempedoic acid 30 mg/kg/d alone or in combination with tolvaptan; P22. As for the experimental part: as §1, §2
A further assay relates to phosphorylated ERK. Description: Immunoblot of kidney lysates, early onset ADPKD mice: pERK. Type of assay: in vivo, mouse. As to conditions: bempedoic acid 30 mg/kg/d alone or in combination with tolvaptan; P22. As for the experimental part: as §1, §2
In assay [5] the test system is total neutrophil gelatinase-associated lipocalin (NGAL). Description: Immunoblot of kidney lysates, early onset ADPKD mice: NGAL. As to conditions: P22. It is filed as in vivo, mouse. As for the experimental part: as §1, §2
Another assay concerns total KIM-1. Description: Immunoblot of kidney lysates, early onset ADPKD mice: KIM-1. It is filed as in vivo, mouse. As to conditions: bempedoic acid 30 mg/kg/d; P22. As for the experimental part:
as §1, §2

The next assay concerns pACLY. Description: Immunoblot of liver lysates, early onset ADPKD mice: pACLY. As to conditions: bempedoic acid 30 mg/kg/d alone or in combination with tolvaptan 100 mg/kg/d; P22. Type of assay: in vivo, mouse. As for the experimental part: as §1
(§3) Liver sample lysates were prepared in buffer and separated using SDS-PAGE. Separated proteins were then electrophoretically transferred to membranes. Nonspecific binding was blocked and membranes were probed with antibodies against pACLY, pThr172AMPKα, PGC1alpha, FATP2, pACC, and cleaved Cas3. Membranes were incubated with appropriate detection antibodies and relative signal intensity determined. Target protein levels were normalized to total protein levels.

A further assay relates to FATP2. The assay is described as follows: Immunoblot of liver lysates, early onset ADPKD mice: FATP2. As to conditions: bempedoic acid 30 mg/kg/d alone or in combination with tolvaptan 100 mg/kg/d; P22. Type of assay: in vivo, mouse. As for the experimental part: as §1, §3
A further assay relates to pThr172AMPKα. Description: Immunoblot of liver lysates, early onset ADPKD mice: pAMPK. As to conditions: bempedoic acid 30 mg/kg/d; P22. It is filed as in vivo, mouse. As for the experimental part: as §1, §3
The test system of a further assay is pACC. Description: Immunoblot of liver lysates, early onset ADPKD mice: pACC. Type of assay: in vivo, mouse. To be noted: bempedoic acid 30 mg/kg/d; P22. As for the experimental part: as §1, §3
For assay [6], the system named is late onset, slowly developing ADPKD mouse model Pkd1fl/fl;Pax8-rtTA;Tet-On-Cre. Description: Late onset, slowly developing ADPKD mouse model: kidney weight to body weight. It is filed as in vivo. As to conditions: bempedoic acid 30 mg/kg/d mixed with food from P30. As for the experimental part:
The example describes characterization of the late onset, slowly developing ADPKD mouse model Pkd1fl/fl;Pax8-rtTA;Tet-On-Cre when treated with bempedoic acid.
Doxycycline was administered intraperitoneally (50 mg/kg/day) on postnatal days 27-29 (P27-P29) and again on P43 and P57 to induce later Pkd1 knockout and slowly progressive PKD in the Cre+ mice. Mice were then sacrificed at […], P60, and P120 for measurements of total kidney weight to body weight ratios.

The structures appear in SMILES notation.

For `CC(C)(CCCCCC(O)CCCCCC(C)(C)C(=O)O)C(=O)O` [Bempedoic acid], the “cyst area relative to control” value in [1] (100 μM ETC-1002 for the last 3 days) and in assay [2] (100 μM ETC-1002 alone for the last 3 days) was “significantly reduced cyst area” in each case. Also, the “total kidney weight to body weight ratio” value is 6.9±0.4% in assay [3] (bempedoic acid 30 mg/kg/d oral gavage P12-P21, P22, vehicle 11.9±1.2%); “significantly reduced total kidney weight to body weight ratio” in assay [6] (P60, male mice); “a trend that was also observed” in assay [6] (P120, male and female mice). For the same compound, in [3] (bempedoic acid 30 mg/kg/d oral gavage P12-P21, P22), the BUN is 59 ± 13 mg/dL. Also, the “kidney size (H&E stains of kidney sections) compared to vehicle control” value in assay [3] is “marked reduction in kidney size”. Moreover, the “ACLY activity (pACLY relative to total protein), kidney lysate” value with phosphorylated ACLY is “reduced ACLY”. For the same compound, in assay [4], the “AMPK activity (pThr172 relative to total protein), kidney lysate” value is recorded as “stimulated AMPK”. Also, the “mTOR signaling pathway (pP70S6K relative to total protein), kidney lysate” value in the assay with phosphorylated P70S6K is listed as “inhibited”. Also, in the assay on phosphorylated ERK, the “ERK signaling pathway (pERK relative to total protein), kidney lysate” value is “inhibited”. Moreover, the “NGAL signaling pathway (NGAL relative to total protein), kidney lysate” value in assay [5] (bempedoic acid 30 mg/kg/d alone or in combination with tolvaptan) was “inhibited”. Besides, in assay [5] (bempedoic acid 30 mg/kg/d), the “reduction of NGAL expression compared with reduction of KIM-1 expression, kidney lysate” value is “to a lesser extent”. The “reduction of KIM-1 expression (marker of kidney injury), kidney lysate” value in the assay on total KIM-1 is reported as > 70%. Besides, the “pACLY (activation marker) relative to total protein, liver lysate” value with pACLY is “inhibited pACLY”. For the same compound, the “FATP2 expression relative to total protein, liver lysate” value in the assay with FATP2 was “increased FATP2 expression”. The “AMPK activity (pThr172 relative to total protein), liver lysate” value in the assay with pThr172AMPKα was “increased AMPK activity”. Further, the “phosphorylation of AMPK target ACC in liver tissue” value in the assay on pACC is on record as “promoted phosphorylation”.
For `O=C(O)C[C@@]1(O)C[C@@H](CCCCCCc2ccc(Cl)cc2Cl)OC1=O` [SB-204990], the “cyst area relative to control” value in assay [1] (30 μM SB-204990 for the last 3 days) is on record as “significantly reduced cyst area”.
`CN(C)C(=N)N=C(N)N` [metformin]: the “cyst area relative to control” value in assay [1] (500 μM metformin for the last 3 days) and in assay [2] (500 μM metformin alone for the last 3 days) was “significantly reduced cyst area” each time.
Regarding `Cc1ccccc1C(=O)Nc1ccc(C(=O)N2CCCC(O)c3cc(Cl)ccc32)c(C)c1` (centres unmarked) [tolvaptan, Tolvaptan], in assay [3], the “kidney size (H&E stains of kidney sections) compared to vehicle control” value is recorded as “marked reduction in kidney size”. Besides, the BUN worked out at 68 ± 8 mg/dL in assay [3] (tolvaptan 30 mg/kg/d oral gavage P12-P21, P22) and 35 ± 7 mg/dL in assay [3] (tolvaptan 100 mg/kg/d oral gavage P12-P21, P22). Moreover, the “total kidney weight to body weight ratio” value in [3] (tolvaptan 30 mg/kg/d oral gavage P12-P21, P22, vs vehicle) is listed as “reduced total kidney weight to body weight ratio”; in assay [3] (tolvaptan 100 mg/kg/d oral gavage P12-P21, P22, vehicle 11.9±1.2%), 7.8±1.0%.
